Test results: PubChem BioAssay AID2305 (GlaxoSmithKline (GSK), 2010)
Where “and” joins values, the source holds several entries; their conditions need not be identical. Equal entries are not always repeated.

What follows are molecules tested on P. falciparum 3D7 growth, pLDH absorbance (assay: P. falciparum 3D7 growth inhibition, dose response, strain 3D7 (AID 2305)).
`CC[C@H]1CN2CC[C@H]1C[C@H]2[C@H](O)c1ccnc2ccc(OC)cc12` showed an IC50 of 150 nM.
In the case of `CN(C)C(CNC(=O)c1cc(-c2ccncc2)c(-c2ccc(Cl)c(O)c2)o1)c1ccccc1` (centres undefined), the IC50 is reported as 840 nM.
Work on `Cc1c(Oc2ccc(-n3ccnc3)cc2)ncnc1N1CCC2(CC1)CNCc1ccccc12` yielded an IC50 of 890 nM.
`COc1ccc(C(=O)C2CCN(CCCCNC(=O)c3ccc(NC(=O)c4cc(Cl)cc(Cl)c4)cc3)CC2)cc1` was tested, and the IC50 was 170 nM.
For `CCOC(=O)N1CCN(CCCNc2c3ccccc3nc3ccccc23)CC1`, the IC50 was 1010 nM.
With `Fc1ccc2nc(-c3ccc(-c4ccc(CNCCc5ccncc5)cc4)cc3)[nH]c2c1` the IC50 was 140 nM.
`CCCCCCOc1ccc(C(=O)NCCCC2CCN(CCCCCNC(=O)C=Cc3ccc(Cl)c(Cl)c3)CC2)cc1` was tested, and the IC50 was 850 nM.
Work on `Cn1ccnc1CCC(=O)Nc1ccc(Cl)cc1C(=O)Nc1ccc(Cl)cc1` yielded an IC50 of 1560 nM.
`O=C(Nc1ccc(Cl)c(Cl)c1)N1CCc2cc3nccc(N4CCN5CCC[C@H]5C4)c3cc21` was tested, and the IC50 was 630 nM.
`Cc1[nH]c(C)c(-c2ccc(-c3ccc(C(F)F)cc3)nc2)c(=O)c1Cl` gave an IC50 of 240 nM.
In the case of `COc1ccc(-n2ncc(C(=O)N3CCC4(C3)C(=O)N(c3ccccc3)c3ccccc34)c2C)cc1` (centres undefined), the IC50 is reported as 930 nM.
`CC(C)(C)c1ccc(NC(=O)Nc2ccc(Cn3ncc(N4CCCNCC4)c(Cl)c3=O)cc2)cc1` was tested, and the IC50 was 750 nM.
For `CCn1c(C(C)C)cc2c3c(N)nc(N)nc3ccc21`, the IC50 was 10 nM.
`CCCCNCc1ccc(-c2nc(CN(CCCn3ccnc3)C(=O)C3COc4ccccc4O3)cs2)cc1` (centres undefined) showed an IC50 of 890 nM.
`COc1ccc(-c2nc(NC(=O)Cc3coc4cc(OC)ccc34)sc2C)cc1` was tested, and the IC50 was 610 nM.
`Cc1nnc2c(NC(=O)NC(C)C)cc3cc(-c4ccc(CN5CCCCC5)cc4)ccc3n12` was tested, and the IC50 was 1180 nM.
`O=C(/C=C/c1ccc(Cl)cc1)NCCCCCN1CCN(C(=O)C=Cc2ccc(Cl)c(Cl)c2)CC1` gave an IC50 of 990 nM.
`CC1(C)N=C(N)N=C(N)N1c1ccc(I)cc1` showed an IC50 of 40 nM.
With `CN(C(=O)C1(c2ccc(Cl)cc2)CC1)C1CCN(CCCCCNC(=O)/C=C/c2ccc(Cl)c(Cl)c2)CC1` the IC50 was 770 nM.
Work on `CCCCCc1cc(O)c2c(c1)OC(C)(C)c1ccncc1-2` yielded an IC50 of 760 nM.
In the case of `COc1ccc2nc(C)cc(Nc3ccc(Oc4ccc(Br)c5ccccc45)c(Cl)c3)c2c1`, the IC50 is reported as 280 nM.
Molecule `Cc1onc(-c2ccccc2)c1-c1nc(NCCC(c2ccccc2)c2ccccc2)no1` has an IC50 of 840 nM.
For `CC(C)c1ccc(-c2noc(SCC(=O)N3CCCCC3C)n2)cc1` (centres undefined), the IC50 was 1670 nM.
Molecule `Cc1cc(F)ccc1Nc1nc(N(C)c2ccccc2)c2cccc(OCCO)c2n1` has an IC50 of 800 nM.
`c1ccc(OCCCCN2CCCCC2)cc1` was tested, and the IC50 was 540 nM.
For `COc1cc(C)nc2ccc(NC(=O)c3cc([N+](=O)[O-])cc([N+](=O)[O-])c3)cc12`, the IC50 was 390 nM.
For `Cc1[nH]c(C)c(-c2ccc(Oc3ccc(Cl)c(Cl)c3)cc2)c(=O)c1Cl`, the IC50 was 110 nM.
With `COc1ccc(-c2cccc(NC(=O)c3ccc(F)cc3)c2)cc1CN1CCCN(C)CC1` the IC50 was 830 nM.
`CN(Cc1ccc(NC(=O)CCC2CCN(C(=O)/C=C/c3ccc(Cl)c(Cl)c3)CC2)cc1)C1CCOCC1` was tested, and the IC50 was 1730 nM.
Work on `COc1cc(O)c2c(=O)c(OC)c(-c3cccc(Cl)c3OCC(=O)O)oc2c1OC` yielded an IC50 of 590 nM.
With `Cc1cc(-c2ccc(CNCCc3cccs3)cc2)ccc1S(=O)(=O)NCc1ccccc1` the IC50 was 1140 nM.
`Oc1ccc(CCCNc2nc(NCc3cccc4ccccc34)nc(NC3CCNCC3)n2)cc1` gave an IC50 of 1130 nM.
For `CCC(=O)c1c(C)n(-c2ncnc3c2nc(C)n3-c2ccc(C)cc2C)c2ccccc12`, the IC50 was 650 nM.
In the case of `COc1ccc(CCNCCCCCCNCCc2ccc(-c3ccccc3)cc2)cc1OC`, the IC50 is reported as 960 nM.
With `Cc1[nH]c(C)c(-c2csc3ccccc23)c(=O)c1Cl` the IC50 was 1020 nM.
Work on `COC(=O)c1cccc(CNCc2cccc(-c3csc(-c4nc5ccccc5[nH]4)c3)c2)c1` yielded an IC50 of 690 nM.
For `Cc1cc(C)c(C(=O)Nc2n[nH]c3nnc(-c4cccc(F)c4F)cc23)c(C)c1`, the IC50 was 1070 nM.
`CCn1c(-c2ccccc2)cc2nnc3ccccc3c21` gave an IC50 of 770 nM.
With `COCc1cccc(-c2cc(-c3ccc(S(C)(=O)=O)cc3)cnc2N)c1` the IC50 was 1000 nM.
In the case of `O=C(Nc1ccc(Cl)cc1)c1cc(Cl)ccc1NC(=O)C1(c2ccc(Cl)cc2)CCCC1`, the IC50 is reported as 1100 nM.
For `Cc1cc2c3c(N)nc(N)nc3ccc2n1C(C)C`, the IC50 was 10 nM.
For `Cc1cccc2[nH]c(-c3cccc(-c4cccc(NC(=O)c5ccc(=O)[nH]n5)c4)c3)nc12`, the IC50 was 790 nM.
In the case of `O=C(Nc1cccnc1)c1cn(-c2ccccc2)nc1-c1cccs1`, the IC50 is reported as 870 nM.
In the case of `Cc1nc(N)nc(N)c1OCc1ccc(Cl)c(Cl)c1`, the IC50 is reported as 130 nM.
With `CN1CCN(CC(=O)Nc2ccc(-c3ccc(-c4nc5ccccc5[nH]4)cc3)cc2)CC1` the IC50 was 700 nM.
In the case of `COc1ccc(-c2cn3c(C(=O)Nc4ccccc4Cl)c(-c4ccccc4)c4c3n2CCCC4)cc1`, the IC50 is reported as 790 nM.
`O=C(NCCCNc1ccnc2cc(Cl)ccc12)c1ccccc1F` showed an IC50 of 320 nM.
Molecule `CCCCCCN1CCCN(Cc2ccc(C(=O)Nc3ccc(CC)cc3)cc2)CC1` has an IC50 of 760 nM.
Work on `O=C(NC1CC1)c1ccc(Cn2c(SCc3cccc([N+](=O)[O-])c3)nc3ccccc3c2=O)cc1` yielded an IC50 of 760 nM.
`Cc1cc(NC(=O)NCCN2CCC(NS(=O)(=O)c3cccc(Br)c3)C2)c2ccccc2n1` (centres undefined) gave an IC50 of 610 nM.
Work on `CCc1ccc(Cc2cnc3nc(N)nc(N)c3c2C)cc1CC` yielded an IC50 of 290 nM.
Work on `COc1cccc2c(NN=Cc3ccc([N+](=O)[O-])cc3)ccnc12` yielded an IC50 of 890 nM.
`Cc1cc(Nc2cc(Cl)cc(Cl)c2)nc(N)n1` showed an IC50 of 1140 nM.
`COc1cccc(C23N=C(Nc4nc5ccccc5[nH]4)NC2(c2cccc(OC)c2)NC(Nc2nc4ccccc4[nH]2)=N3)c1` (centres undefined) gave an IC50 of 160 nM.
In the case of `COc1ccc(Oc2ccc(-c3c(C)[nH]c(C)cc3=O)cc2)cc1`, the IC50 is reported as 610 nM.
`CN(C)CCCOc1ccc(CCNCc2cccc(Oc3ccc(Cl)cc3)c2)cc1` was tested, and the IC50 was 890 nM.
`CN1N=C2c3ccccc3CCC2C1c1ccc(C#N)cc1` (centres undefined) showed an IC50 of 660 nM.
Molecule `O=C(NCc1ccccc1)c1nn(CCCN2CCC3(CC2)C(=O)NCN3c2ccccc2)cc1-c1ccc(Cl)c(Cl)c1` has an IC50 of 1050 nM.
`COc1ccc(CN(C)C(=O)CCNS(=O)(=O)c2ccc3c(c2)OCCCO3)cc1F` was tested, and the IC50 was 660 nM.
With `Cc1cccc(C)c1CNc1nc(N2CCOCC2)cc2c(C)c(C)[nH]c12` the IC50 was 1240 nM.
`CCNc1cc(C(=O)N[C@@H](Cc2ccccc2Cl)[C@H](O)CNC2CCCCC2)cc(N2CCCCS2(=O)=O)c1` gave an IC50 of 800 nM.
`CC[C@H]1CN2CC[C@H]1C[C@H]2[C@H](O)c1ccnc2ccc(C#N)cc12` was tested, and the IC50 was 150 nM.
Work on `CC(C)C[C@H](NC(=O)c1cccc(F)c1)C(=O)N[C@H](/C=N/NC(=O)c1ccccc1)CCc1ccccc1` yielded an IC50 of 710 nM.
`S=C(Nc1ccccc1Cl)NC1CCC(CN2CCC(c3c[nH]c4ccccc34)CC2)CC1` (centres undefined) showed an IC50 of 1050 nM.
`Cc1ccc(Nc2nccc(Nc3ccc4c(c3)nc(Nc3cc(C(C)(C)C)on3)n4C)n2)cc1S(C)(=O)=O` showed an IC50 of 600 nM.
`CC(=O)Nc1nnc(SCc2c(C)cc(C(C)(C)C)cc2C)s1` was tested, and the IC50 was 700 nM.
With `Cc1cccc(Nc2nc3nonc3nc2Nc2cccc(Cl)c2Cl)c1C` the IC50 was 1030 nM.
Work on `O=c1[nH]c(NCCCCCN2CCC(c3c[nH]c4ccccc34)CC2)ncc1Cc1ccc(Cl)c(Cl)c1` yielded an IC50 of 970 nM.
Molecule `COc1cc(F)c2ncc(Cl)c(C(O)CN3CCC(NC(=O)c4ccc5c(c4)NC(=O)CS5)CC3)c2c1` (centres undefined) has an IC50 of 680 nM.
In the case of `O=C(Nc1ccc2c(c1)OCO2)c1cc(-c2cccnc2)cnc1NCc1ccc2c(c1)OCO2`, the IC50 is reported as 1190 nM.
`O=C(C=Cc1cccc(Cl)c1Cl)NC1CCC(CN2CCC(c3c[nH]c4ccccc34)CC2)CC1` (centres undefined) was tested, and the IC50 was 680 nM and 1140 nM.
`COc1ccc2nccc([C@@H](O)CN3CC[C@H](NCc4cnc5c(c4)NC(=O)CS5)[C@H](F)C3)c2c1` gave an IC50 of 770 nM.
With `O=C(C(=O)c1ccc(Nc2ccnc3cc(-c4ccccn4)ccc23)cc1)c1ccccc1` the IC50 was 970 nM.
Molecule `O=S(=O)(ON=C1CCc2ccccc21)c1ccc(Cl)cc1` has an IC50 of 1310 nM.
With `CCCCC1(NC(=O)[C@@H](Nc2ccc(C#N)c3ccccc23)C2CCCCC2)CCCCC1` the IC50 was 1120 nM.
`CCCCNCc1ccc(OCc2cccc(COc3ccc(CNCCCC)cc3)c2)cc1` was tested, and the IC50 was 320 nM.
Molecule `O=C(Nc1cccc(C(F)(F)F)c1)Nc1ccc2nonc2c1` has an IC50 of 850 nM.
`CC(C)(C)CC(C)(C)c1ccc(O)c(CNC2CCCCC2)c1` was tested, and the IC50 was 60 nM.
Molecule `COC(=O)[C@@H](NC(=O)[C@H](CC(C)C)Nc1ccc(C#N)c2ccccc12)c1ccc(O)cc1` has an IC50 of 790 nM.
`CCCNC(=O)Nc1ccc(N(C)c2ccnc(NC3CC3)n2)cc1` showed an IC50 of 620 nM.
`O=C(CCCCCNC(=O)c1ccc(O)c(-c2ccc(Cl)c(Cl)c2)c1)NCCN1CCCCC1` showed an IC50 of 890 nM.
Molecule `COc1cc2nc(N3CCC(CNC(=O)c4ccc(-c5ccc(C(=O)N(C)C)cc5OCCN(C)C)cc4)CC3)nc(N)c2cc1OC` has an IC50 of 840 nM.
Molecule `O=C(Nc1ccc(Cl)cc1F)N[C@H]1CCN(CCCCCNC(=O)[C@@H]2C[C@H]2c2ccc(Cl)c(Cl)c2)C1` has an IC50 of 1090 nM.
`CS(=O)(=O)N1CC2(CCN(CCC(NC(=O)NCc3ccccc3Cl)c3ccc(Cl)c(Cl)c3)CC2)c2ccccc21` (centres undefined) showed an IC50 of 1110 nM.
Molecule `CN1CCN(c2ccc3nc(-c4ccc5nc(-c6ccc(O)cc6)[nH]c5c4)[nH]c3c2)CC1` has an IC50 of 120 nM.
In the case of `CN1CCN(CCNc2c3ccccc3nc3ccc4ccccc4c23)CC1`, the IC50 is reported as 530 nM.
Molecule `Cc1cc(C)c(CC(C)NCC(O)c2cccc(C(F)(F)F)c2)c(C)c1` (centres undefined) has an IC50 of 570 nM.
Molecule `O=C(Nc1ccccc1-c1ccccc1)C1CCCN1C(=O)Nc1ccc(Cl)cc1` (centres undefined) has an IC50 of 790 nM.
For `O=C(CN1CCN(C(C(=O)Nc2cc(C(F)(F)F)ccc2Cl)c2ccccc2)CC1)NC1CC1` (centres undefined), the IC50 was 440 nM.
In the case of `CN(C)CC(=O)Nc1ccc(-c2ccc3ccnc(N)c3c2)cc1`, the IC50 is reported as 30 nM.
Work on `CCCCNCc1ccc(-c2nc(CN(CCCN3CCN(C)CC3)C(=O)Nc3cccc(Cl)c3)cs2)cc1` yielded an IC50 of 970 nM.
For `O=C(NCc1cccc(F)c1)Nc1ccc(-c2cccc(-c3nc4ccccc4[nH]3)c2)cc1`, the IC50 was 890 nM.
For `O=C(Nc1ccc(-c2nc3ccccc3[nH]2)cc1)C1CCN(Cc2cccc(F)c2F)CC1`, the IC50 was 1100 nM.
With `O=C(/C=C/c1ccc(Cl)c(Cl)c1)NCCCCCN1CCC(NS(=O)(=O)c2cc(Cl)cc(Cl)c2)CC1` the IC50 was 1240 nM.
Work on `CN(C)CCNCc1ccc(-c2ccc3c(Nc4ccc(Cl)cc4F)ccnc3c2)o1` yielded an IC50 of 210 nM.
Work on `CN(Cc1cnc2nc(N)nc(N)c2n1)c1ccc(C(=O)NC(CCC(=O)O)C(=O)O)cc1` (centres undefined) yielded an IC50 of 180 nM.
Work on `COC(=O)Cn1c(C2CCN(CC3CCN(C(=O)/C=C/c4ccc(Cl)c(Cl)c4)CC3)CC2)nc2ccccc21` yielded an IC50 of 1200 nM.
With `O=C(Nc1ccc2c(c1)CCCN2S(=O)(=O)c1cccs1)c1cc([N+](=O)[O-])ccc1Cl` the IC50 was 840 nM.
With `Cc1cc(F)ccc1[C@H]1C[C@H](N2CCOCC2)CCN1C(=O)N(C)[C@@H](C)c1cc(C(F)(F)F)cc(C(F)(F)F)c1` the IC50 was 760 nM.
